Assay results: US7998989B2, “2-Imino-1,3-thiazoline-based compounds and T-type calcium channel inhibitors containing the same” (Korea Institute of Science and Technology, priority 2007, dated 2011)
Read-outs that look alike come from different tables or passages of the source.

What was measured:
[1] = target: T1, α1G T-type calcium channel (Homo sapiens, UniProt O43497); experiment: Assay for % inhibiting activity against T-type calcium channel using FDSS6000 (fluo-3 calcium imaging, KCl activation); assay type: cell-based
T1 construct: host or cells: HEK293
In short: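 Percent inhibition derived from […] area against untreated control (100%), after 75 s compound pre-exposure and 75 mM KCl activation. Cells: HEK293 with stable α1G plus Kir2.1, fluo-3/AM-labelled (5 μM), assayed in pH 7.4 HEPES containing 10 mM CaCl2.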

[2] = HEK293, 10 μM, HEK293 cells stably expressing α1G T-type calcium channel and Kir2.1, compounds of the examples, read-out: FDSS (% inhibition)/10uM
[3] = 10 μM, FDSS (% inhibition), comparative compounds where R6 is a phenyl group, read-out: FDSS

T1 sequence (O43497 whole entry): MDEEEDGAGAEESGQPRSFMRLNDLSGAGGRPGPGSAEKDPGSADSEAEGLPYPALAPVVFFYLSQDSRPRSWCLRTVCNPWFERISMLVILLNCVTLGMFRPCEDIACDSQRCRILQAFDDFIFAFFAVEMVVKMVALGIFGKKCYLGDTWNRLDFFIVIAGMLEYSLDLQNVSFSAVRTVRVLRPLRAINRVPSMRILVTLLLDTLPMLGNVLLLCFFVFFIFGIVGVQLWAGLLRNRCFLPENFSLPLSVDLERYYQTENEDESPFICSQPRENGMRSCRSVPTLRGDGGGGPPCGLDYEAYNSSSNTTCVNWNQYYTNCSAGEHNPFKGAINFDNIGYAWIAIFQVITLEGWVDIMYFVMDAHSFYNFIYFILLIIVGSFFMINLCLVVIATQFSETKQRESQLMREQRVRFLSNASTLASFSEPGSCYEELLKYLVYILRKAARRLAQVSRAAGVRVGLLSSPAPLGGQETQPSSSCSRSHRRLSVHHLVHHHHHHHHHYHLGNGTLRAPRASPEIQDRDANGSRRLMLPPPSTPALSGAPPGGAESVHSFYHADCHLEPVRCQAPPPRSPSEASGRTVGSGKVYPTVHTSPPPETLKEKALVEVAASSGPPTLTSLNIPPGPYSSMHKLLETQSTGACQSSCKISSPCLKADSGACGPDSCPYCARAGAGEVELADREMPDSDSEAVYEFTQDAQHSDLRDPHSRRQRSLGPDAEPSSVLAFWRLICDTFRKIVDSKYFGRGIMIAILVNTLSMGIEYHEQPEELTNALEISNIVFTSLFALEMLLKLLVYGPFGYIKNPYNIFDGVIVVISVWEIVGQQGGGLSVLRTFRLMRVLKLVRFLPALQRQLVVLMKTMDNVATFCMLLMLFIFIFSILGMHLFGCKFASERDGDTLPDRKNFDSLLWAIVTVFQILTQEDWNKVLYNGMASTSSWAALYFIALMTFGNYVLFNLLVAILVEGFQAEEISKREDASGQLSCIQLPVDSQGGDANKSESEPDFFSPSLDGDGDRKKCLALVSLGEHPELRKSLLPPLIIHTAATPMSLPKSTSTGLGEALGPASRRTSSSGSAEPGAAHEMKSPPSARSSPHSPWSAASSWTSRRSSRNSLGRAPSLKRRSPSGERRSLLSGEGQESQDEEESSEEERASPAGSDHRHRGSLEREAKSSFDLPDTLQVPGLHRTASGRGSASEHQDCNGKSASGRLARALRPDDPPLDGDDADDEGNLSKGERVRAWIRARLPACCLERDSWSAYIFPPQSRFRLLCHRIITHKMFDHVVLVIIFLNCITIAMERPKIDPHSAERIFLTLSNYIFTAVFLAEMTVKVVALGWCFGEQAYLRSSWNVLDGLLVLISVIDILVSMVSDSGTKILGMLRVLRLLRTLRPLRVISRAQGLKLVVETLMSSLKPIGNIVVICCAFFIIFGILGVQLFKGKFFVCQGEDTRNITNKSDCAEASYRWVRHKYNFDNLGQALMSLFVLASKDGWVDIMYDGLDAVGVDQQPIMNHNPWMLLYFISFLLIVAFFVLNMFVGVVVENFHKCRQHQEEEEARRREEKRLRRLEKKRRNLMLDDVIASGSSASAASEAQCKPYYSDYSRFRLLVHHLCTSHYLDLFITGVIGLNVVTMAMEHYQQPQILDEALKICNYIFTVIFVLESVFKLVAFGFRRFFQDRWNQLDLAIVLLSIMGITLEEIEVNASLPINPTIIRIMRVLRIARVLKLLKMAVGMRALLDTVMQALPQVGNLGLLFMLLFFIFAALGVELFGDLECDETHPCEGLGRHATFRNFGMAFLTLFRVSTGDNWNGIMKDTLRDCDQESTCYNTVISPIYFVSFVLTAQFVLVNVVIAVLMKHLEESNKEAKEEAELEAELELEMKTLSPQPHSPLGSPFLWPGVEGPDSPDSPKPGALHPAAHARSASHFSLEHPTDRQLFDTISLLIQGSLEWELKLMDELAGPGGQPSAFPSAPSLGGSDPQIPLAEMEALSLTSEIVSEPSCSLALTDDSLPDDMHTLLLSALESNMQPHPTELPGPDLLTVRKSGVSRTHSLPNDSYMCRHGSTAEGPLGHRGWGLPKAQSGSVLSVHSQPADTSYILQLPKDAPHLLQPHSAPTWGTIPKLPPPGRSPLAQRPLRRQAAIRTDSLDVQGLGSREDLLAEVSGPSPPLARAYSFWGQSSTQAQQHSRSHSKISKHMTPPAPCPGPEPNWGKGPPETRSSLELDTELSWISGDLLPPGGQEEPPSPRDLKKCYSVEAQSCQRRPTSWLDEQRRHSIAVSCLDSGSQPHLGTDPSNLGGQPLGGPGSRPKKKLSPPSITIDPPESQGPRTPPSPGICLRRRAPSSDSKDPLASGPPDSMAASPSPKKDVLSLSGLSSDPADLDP

SMILES	inhibition at 10 µM [1, 2] [%]	melting point [°C]	inhibition at 10 µM [1, 3] [%]	FDSS (% inhibition)/10uM ([1]; 10 μM, HEK293 cells stably expressing α1G T-type calcium channel and Kir2.1, compounds of the examples) [%]	inhibition at 10 µM ([1]; 10 μM, HEK293 cells stably expressing α1G T-type calcium channel and Kir2.1, compounds of the examples, read-out: FDSS (% inhibition)/10uM) [%]
Cl.O=C(CC1CSC(=NC2CCCCC2)N1Cc1ccccc1)Nc1ccc(Cl)cc1 (stereo not drawn) [KHG24299, (2-cyclohexylimino-3-benzyl-1,3-thiazolidine-4-yl)-N-(4-chlorophenyl)-acetamide hydrochloride]	45.6	199			
CN1C(=NC2CCCCC2)SCC1CC(=O)Nc1cc(F)cc(F)c1.Cl (stereo not drawn) [KHG24534, (2-cyclohexylimino-3-methyl-1,3-thiazolidine-4-yl)-N-(3,5-difluorophenyl)-acetamide hydrochloride]	45.7	240			
CC(C)c1ccc(NC(=O)CC2CSC(=Nc3ccc(F)c(Cl)c3)N2C)cc1.Cl (stereo not drawn) [KHG21947, [2-(3-chloro-4-fluorophenylimino)-3-methyl-1,3-thiazolidine-4-yl]-N-(4-isopropylphenyl)-acetamide hydrochloride]		239 to 241	23.9		
COc1ccc(NC(=O)CC2CSC(=NC34CC5CC(CC(C5)C3)C4)N2C)cc1.Cl (stereo not drawn) [KHG24419, [2-(1-adamantyl)imino-3-methyl-1,3-thiazolidine-4-yl]-N-(4-methoxyphenyl)-acetamide hydrochloride]	46.7	227 to 229			
CC(C)c1cccc(NC(=O)CC2CSC(=NC3CCCCC3)N2C)c1.Cl (stereo not drawn) [KHG24528, (2-cyclohexylimino-3-methyl-1,3-thiazolidine-4-yl)-N-(3-isopropylphenyl)-acetamide hydrochloride]	54.2	160			
Cl.O=C(CC1CSC(=NC2CCCCC2)N1C1CCCCC1)NCc1ccccc1C(F)(F)F (stereo not drawn) [KHG24547, (2-cyclohexylimino-3-cyclohexyl-1,3-thiazolidine-4-yl)-N-(2-trifluoromethylbenzyl)-acetamide hydrochloride]	51.1	180			
CN1C(=NC2CCCCCC2)SCC1C(=O)Nc1cc(C(F)(F)F)cc(C(F)(F)F)c1.Cl (stereo not drawn) [KHG24632, (2-cycloheptylimino-3-methyl-1,3-thiazolidine-4-yl)-N-(3,5-ditrifluoromethylphenyl)-carboxamide hydrochloride]		202		57.06	
CC1SC(=NC2CCCCCC2)N(C)C1CC(=O)Nc1ccc([N+](=O)[O-])cc1.Cl (stereo not drawn) [KHG24642, (2-cycloheptylimino-3,5-dimethyl-1,3-thiazolidine-4-yl)-N-(4-nitrophenyl)-acetamide hydrochloride]	66.7	255 to 258			
CN1C(=NCCc2ccccc2)SCC1CC(=O)Nc1ccc(Cl)cc1.Cl (stereo not drawn) [KHG24228, (2-phenethylimino-3-methyl-1,3-thiazolidine-4-yl)-N-(4-chlorophenyl)-acetamide hydrochloride]	48.6	226.7			
CCCCc1ccc(NC(=O)CC2CSC(=NC3CC3)N2C)cc1.Cl (stereo not drawn) [KHG24152, (2-cyclopropylimino-3-methyl-1,3-thiazolidine-4-yl)-N-(4-n-butylphenyl)-acetamide hydrochloride]	33.9	227.5 to 228.5			
CCCCN1C(=NC23CC4CC(CC(C4)C2)C3)SCC1CC(=O)Nc1ccc(F)cc1.Cl (stereo not drawn) [KHG24780, [2-(1-adamantylimino)-3-(n-butyl)-1,3-thiazolidine-4-yl]-N-(4-fluorophenyl)-acetamide hydrochloride]		163			55.3
CCc1ccc(NC(=O)CC2CSC(=NC3CCCCC3)N2C2CC2)cc1.Cl (stereo not drawn) [KHG24272, [2-cyclohexylimino-3-cyclopropyl-1,3-thiazolidine-4-yl]-N-(4-ethylphenyl)-acetamide hydrochloride]	37.6	194.2			
CN1C(=Nc2ccc(-c3ccccc3)cc2)SCC1CC(=O)Nc1ccc(Cl)cc1F.Cl (stereo not drawn) [KHG23073, [2-(4-phenylphenylimino)-3-methyl-1,3-thiazolidine-4-yl]-N-(4-chloro-2-fluorophenyl)-acetamide hydrochloride]		222 to 223	28.3		
CN1C(=NC2CCCCCC2)SCC1C(=O)NCc1cccc(F)c1.Cl (stereo not drawn) [KHG24666, (2-cycloheptylimino-3-methyl-1,3-thiazolidine-4-yl)-N-(3-fluorobenzyl)-carboxamide hydrochloride]	46.2	226.1			
Cl.O=C(CC1CSC(=NC23CC4CC(CC(C4)C2)C3)N1C1CC1)Nc1cc(Cl)ccc1F (stereo not drawn) [KHG24802, [2-(1-adamantylimino)-3-cyclopropyl-1,3-thiazolidine-4-yl]-N-(5-chloro-2-fluorophenyl)-acetamide hydrochloride]	62.4	244			
CC(C)c1ccc(NC(=O)CC2CSC(=NCC3CCCCC3)N2C)cc1.Cl (stereo not drawn) [KHG24222, (2-cyclohexylmethylimino-3-methyl-1,3-thiazolidine-4-yl)-N-(4-isopropylphenyl)-acetamide hydrochloride]	34.8	250.7			
Cc1cc(NC(=O)CC2CSC(=NC3CCCCC3)N2C)ccc1Br.Cl (stereo not drawn) [KHG24111, (2-cyclohexylimino-3-methyl-1,3-thiazolidine-4-yl)-N-(4-bromo-3-methylphenyl)-acetamide hydrochloride]	67.7	237 to 238			
CCN1C(=NC2CCCCC2)SCC1CC(=O)Nc1ccc(C)cc1.Cl (stereo not drawn) [KHG24279, [2-cyclohexylimino-3-ethyl-1,3-thiazolidine-4-yl]-N-(4-methylphenyl)-acetamide hydrochloride]	44.1	211.9			
CN1C(=NC2CCCCC2)SCC1CC(=O)Nc1cccc([N+](=O)[O-])c1.Cl (stereo not drawn) [KHG24108, (2-cyclohexylimino-3-methyl-1,3-thiazolidine-4-yl)-N-(3-nitrophenyl)-acetamide hydrochloride]	44.4	207			
CN1C(=NC2CCCCCC2)SCC1CC(=O)Nc1ccc([N+](=O)[O-])cc1.Cl (stereo not drawn) [KHG24445, (2-cycloheptylimino-3-methyl-1,3-thiazolidine-4-yl)-N-(4-nitrophenyl)-acetamide hydrochloride]	50.8	242			
CN1C(=NC2CCCC2)SCC1CC(=O)Nc1ccc(F)cc1Cl.Cl (stereo not drawn) [KHG24095, (2-cyclopentylimino-3-methyl-1,3-thiazolidine-4-yl)-N-(2-chloro-4-fluorophenyl)-acetamide hydrochloride]	30.5	209 to 210.5			
CC(C)N1C(=NC23CC4CC(CC(C4)C2)C3)SCC1CC(=O)Nc1ccc(C(F)(F)F)cc1.Cl (stereo not drawn) [KHG24826, [2-(1-adamantylimino)-3-isopropyl-1,3-thiazolidine-4-yl]-N-(4-trifluoromethylphenyl)-acetamide hydrochloride]	46.5	246			
CCCN1C(=NC2CCCCC2)SCC1CC(=O)Nc1cc(Cl)cc(Cl)c1.Cl (stereo not drawn) [KHG24415, [2-cyclohexylimino-3-(n-propyl)-1,3-thiazolidine-4-yl]-N-(3,5-dichlorophenyl)-acetamide hydrochloride]	64.2	109.2			
CN1C(=Nc2cccc([N+](=O)[O-])c2)SCC1CC(=O)Nc1ccc(Cl)cc1.Cl (stereo not drawn) [KHG21655, [2-(3-nitrophenylimino)-3-methyl-1,3-thiazolidine-4-yl]-N-(4-chlorophenyl)-acetamide hydrochloride]		228	4.68		
Cl.O=C(CC1CSC(=NC23CC4CC(CC(C4)C2)C3)N1C1CC1)Nc1cc(C(F)(F)F)cc(C(F)(F)F)c1 (stereo not drawn) [KHG24792, [2-(1-adamantylimino)-3-cyclopropyl-1,3-thiazolidine-4-yl]-N-(3,5-ditrifluoromethylphenyl)-acetamide hydrochloride]	67	258			
CN1C(=NC2CCCCC2)SCC1CC(=O)NCc1ccc(Cl)c(Cl)c1.Cl (stereo not drawn) [KHG24088, (2-cyclohexylimino-3-methyl-1,3-thiazolidine-4-yl)-N-(3,4-dichlorobenzyl)-acetamide hydrochloride]	43.2	215 to 216			
CCCCc1ccc(NC(=O)CC2CSC(=NC3CCCC3)N2C)cc1.Cl (stereo not drawn) [KHG24116, (2-cyclopentylimino-3-methyl-1,3-thiazolidine-4-yl)-N-(4-n-butylphenyl)-acetamide hydrochloride]	65.4	216 to 217.5			
CC(C)N1C(=NC23CC4CC(CC(C4)C2)C3)SCC1CC(=O)Nc1ccc(Oc2ccccc2)cc1.Cl (stereo not drawn) [KHG24833, [2-(1-adamantylimino)-3-isopropyl-1,3-thiazolidine-4-yl]-N-(4-phenoxyphenyl)-acetamide hydrochloride]	37	164			
CCCCc1ccc(NC(=O)CC2CSC(=NC3CCCCC3)N2CCCC)cc1.Cl (stereo not drawn) [KHG24282, [2-cyclohexylimino-3-(n-butyl)-1,3-thiazolidine-4-yl]-N-(4-n-butylphenyl)-acetamide hydrochloride]	43.6	209.1			
Cl.O=C(CC1CSC(=NC2CCCCC2)N1Cc1ccccc1)Nc1cc(Cl)cc(Cl)c1 (stereo not drawn) [KHG24422, (2-cyclohexylimino-3-benzyl-1,3-thiazolidine-4-yl)-N-(3,5-dichlorophenyl)-acetamide hydrochloride]	46.3	178 to 179			
